This is an account of results in US9301961B2, “Autoimmune and inflammatory disorder therapy” (Katholieke Universiteit Leuven, K.U. Leuven R&D, priority 2011, dated 2016).

pIC50: −log10 of the molar value. Like-named read-outs stand apart in the source and are kept apart here.

Assay [1] concerns Peripheral blood mononuclear cells (PBMCs) mixed with mitomycin C treated RPMI1788 cells. The experiment in a line: Mixed lymphocyte reaction (MLR) assay, 3H-thymidine uptake.
Text: In the MLR assay PBMCs from two individuals are mixed together in tissue culture for several days. […] In the one-way MLR test, the mononuclear cells from one of the individuals are inactivated (usually by treatment with mitomycin C or irradiation), thereby allowing only the untreated remaining population of mononuclear cells, such as lymphocytes, to proliferate in response to foreign histocompatibility antigens.
The immunosuppressive effect of test compounds was also investigated using MLR assays. Peripheral blood mononuclear cells (PBMCs) were isolated from heparinized blood of healthy donors by density-gradient centrifugation over Lymphoprep. […] RPMI1788 cells were treated with 30 μg/mL mitomycin C for 20 min at 37° C., washed four times with medium, and finally suspended in complete RPMI medium to a density of 0.45×10^6 cells/mL. An amount of 100 μL of each cell suspension was mixed with 20 μL of diluted compound. The mixed cells were cultured at 37° C. for 6 days in 5% CO2. […] Thereafter, the cells were harvested on glass filter paper and the counts per minute (cpm) determined in a liquid scintillation counter.
For assay [2], the target named is T1, PI3KCB (PI3K p110β/p85α (h)) (Homo sapiens, UniProt P42338).
T1 construct: purchased Millipore
The experiment in a line: Commercial kinase activity assay (Millipore, HTRF). Conditions: 10 μM test compound. The assay is classed as biochemical. On the procedure: LOK (h) was incubated with 8 mM MOPS pH 7.0, 0.2 mM EDTA, 250 μM […], 10 mM MgAcetate and [γ-^33P-ATP] (specific activity approx. 500 cpm/pmol, concentration as required). The reaction was initiated by the addition of the MgATP mix. After incubation for 40 minutes at room temperature, the reaction was stopped by the addition of 3% phosphoric acid solution. 10 μL of the reaction was then spotted onto a P30 filtermat and washed three times for 5 minutes in 75 mM phosphoric acid and once in methanol prior to drying and scintillation counting. PI3K p110β/p85α (h) PI3K (p110β/p85α) (h) was incubated in assay buffer containing 10 μM phosphatidylinositol-4,5-bisphosphate and MgATP (concentration as required). The reaction was initiated by the addition of the MgATP mix. After incubation for 30 minutes at room temperature, the reaction was stopped by the addition of stop solution containing EDTA and biotinylated phosphatidylinositol-3,4,5-trisphosphate. Finally, detection buffer was added, which contains europium-labelled anti-GST monoclonal antibody, GST-tagged GRP1 PH domain and streptavidinallophycocyanin. The plate was then read in time-resolved fluorescence mode and the homogenous time-resolved fluorescence (HTRF®) signal determined according to the formula HTRF=10000×(Em665nm/Em620 nm). […]
In general terms: Time-resolved FRET reads energy transfer from a long-lived donor to a nearby acceptor.

Another assay addresses T2, LOK (h) (Homo sapiens, UniProt O94804).
T2 construct: purchased Millipore
The experiment in a line: Commercial kinase activity assay (Millipore, 33P-ATP filter). In kind it is biochemical. The note with it: 10 μM test compound. On the procedure:
(§1) LOK (h) was incubated with 8 mM MOPS pH 7.0, 0.2 mM EDTA, 250 μM […], 10 mM MgAcetate and [γ-^33P-ATP] (specific activity approx. 500 cpm/pmol, concentration as required). The reaction was initiated by the addition of the MgATP mix. After incubation for 40 minutes at room temperature, the reaction was stopped by the addition of 3% phosphoric acid solution. 10 μL of the reaction was then spotted onto a P30 filtermat and washed three times for 5 minutes in 75 mM phosphoric acid and once in methanol prior to drying and scintillation counting. PI3K p110β/p85α (h) PI3K (p110β/p85α) (h) was incubated in assay buffer containing 10 μM phosphatidylinositol-4,5-bisphosphate and MgATP (concentration as required). The reaction was initiated by the addition of the MgATP mix. After incubation for 30 minutes at room temperature, the reaction was stopped by the addition of stop solution containing EDTA and biotinylated phosphatidylinositol-3,4,5-trisphosphate. Finally, detection buffer was added, which contains europium-labelled anti-GST monoclonal antibody, GST-tagged GRP1 PH domain and streptavidinallophycocyanin. The plate was then read in time-resolved fluorescence mode and the homogenous time-resolved fluorescence (HTRF®) signal determined according to the formula HTRF=10000×(Em665nm/Em620 nm). YSK4 (h) YSK4 (h) was incubated with 8 mM MOPS pH 7.0, 0.2 mM EDTA, 250 […], 10 mM MgAcetate and [γ-^33P-ATP] (specific activity approx. 500 cpm/pmol, concentration as required). The reaction was initiated by the addition of the MgATP mix. After incubation for 40 minutes at room temperature, the reaction was stopped by the addition of 3% phosphoric acid solution. 10 μL of the reaction was then spotted onto a P30 filtermat and washed three times for 5 minutes in 75 mM phosphoric acid and once in methanol prior to drying and scintillation counting. PI4KA (PI4K alpha) The 2× PI4KA (PI4K alpha)/PI Lipid Kinase Substrate mixture was prepared in 20 mM Tris, pH 7.5, 0.4% Triton X-100, 5 mM MgCl2, 0.5 mM EGTA. The final 10 μL Kinase Reaction consisted of 75-300 ng PI4KA (PI4K alpha) and 100 μM PI Lipid Kinase Substrate in 7.5 mM HEPES, 10 mM Tris, pH 7.5, 0.2% Triton X-100, 2.5 mM MgCl2, 0.25 mM EGTA. After the 1 hour Kinase Reaction incubation, 5 μL of Detection Mix consisting of a europium labeled anti-ADP antibody, an Alexa Fluor® 647 labeled ADP tracer, and EDTA (to stop the kinase reaction) was added to the assay well. ADP formed by the kinase reaction (in the absence of an inhibitor) displaced the Alexa Fluor® 647 labeled ADP tracer from the antibody, resulting in a decrease in the TR-FRET signal. […] PI4KB (PI4K beta) The 2× PI4KB (PI4K beta)/PI Lipid Kinase Substrate mixture was prepared in 50 mM HEPES pH 7.5, 0.1% CHAPS, 1 mM EGTA, 4 mM MgCl2. […]

The next assay deals with T3, YSK4 (h) (Homo sapiens, UniProt Q56UN5).
T3 construct: purchased Millipore
T3 sequence (Q56UN5 1-1328): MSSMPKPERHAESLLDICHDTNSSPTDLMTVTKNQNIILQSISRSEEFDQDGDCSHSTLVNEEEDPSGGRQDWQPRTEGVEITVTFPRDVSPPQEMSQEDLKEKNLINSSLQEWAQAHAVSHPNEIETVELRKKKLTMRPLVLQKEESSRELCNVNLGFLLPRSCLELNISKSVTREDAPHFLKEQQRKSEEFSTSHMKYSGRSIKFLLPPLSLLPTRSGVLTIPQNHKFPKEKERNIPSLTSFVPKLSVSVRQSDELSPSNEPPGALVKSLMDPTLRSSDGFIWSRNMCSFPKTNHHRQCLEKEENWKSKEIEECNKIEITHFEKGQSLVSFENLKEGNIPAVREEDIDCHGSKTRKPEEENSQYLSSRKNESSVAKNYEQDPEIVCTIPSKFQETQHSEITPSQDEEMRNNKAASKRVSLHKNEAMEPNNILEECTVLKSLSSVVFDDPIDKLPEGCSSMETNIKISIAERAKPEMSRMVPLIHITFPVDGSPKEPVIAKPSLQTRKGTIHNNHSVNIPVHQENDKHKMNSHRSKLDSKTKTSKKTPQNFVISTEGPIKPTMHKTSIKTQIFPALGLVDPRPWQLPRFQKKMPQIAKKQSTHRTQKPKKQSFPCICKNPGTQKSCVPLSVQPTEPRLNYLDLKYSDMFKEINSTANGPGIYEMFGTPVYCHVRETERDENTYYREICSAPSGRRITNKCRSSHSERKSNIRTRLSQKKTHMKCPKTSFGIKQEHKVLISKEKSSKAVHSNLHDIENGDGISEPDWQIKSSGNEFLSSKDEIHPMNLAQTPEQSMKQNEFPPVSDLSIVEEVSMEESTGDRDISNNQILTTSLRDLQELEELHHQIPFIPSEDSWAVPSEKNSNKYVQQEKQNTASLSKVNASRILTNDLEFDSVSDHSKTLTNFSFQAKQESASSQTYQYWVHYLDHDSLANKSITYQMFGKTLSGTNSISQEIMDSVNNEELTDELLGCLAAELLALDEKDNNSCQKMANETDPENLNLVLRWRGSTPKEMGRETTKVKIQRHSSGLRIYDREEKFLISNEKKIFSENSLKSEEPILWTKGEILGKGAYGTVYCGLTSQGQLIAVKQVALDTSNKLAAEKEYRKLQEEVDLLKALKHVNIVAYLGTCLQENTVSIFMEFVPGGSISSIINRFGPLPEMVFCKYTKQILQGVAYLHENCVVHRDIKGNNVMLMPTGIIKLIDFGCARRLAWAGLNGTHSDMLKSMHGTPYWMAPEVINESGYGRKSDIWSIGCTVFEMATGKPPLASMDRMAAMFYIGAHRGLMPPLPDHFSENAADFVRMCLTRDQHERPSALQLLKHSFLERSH
The assay is described as above. The assay is classed as biochemical. The note with it: 10 μM test compound. On the procedure:
as §1

The target in another assay is T4, PAK1 (Homo sapiens, UniProt Q13153).
T4 construct: made in house; host or cells: E. coli BL21-derived host (T7 phage) or HEK-293
The experiment in a line: Commercial kinase activity assay (Invitrogen, fluorescence). The assay is classed as biochemical. Conditions: 10 μM test compound.

The target of a further assay is T5, PI4KA (PI4K alpha) (Homo sapiens, UniProt P42356).
T5 construct: purchased Invitrogen
The experiment in a line: Commercial kinase activity assay (Invitrogen, ADP TR-FRET). Conditions: 10 μM test compound. In kind it is biochemical.

Assay [3] addresses PI4KIIIβ (PI4KB, PI4K beta) (Homo sapiens, UniProt Q9UBF8). The description is as above. The note with it: for inhibition at 10 µM: read-out: % inhibition of PI4KIIIβ @ 10 μM.
Experimental: PI4KB (PI4K beta) The 2× PI4KB (PI4K beta)/PI Lipid Kinase Substrate mixture was prepared in 50 mM HEPES pH 7.5, 0.1% CHAPS, 1 mM EGTA, 4 mM MgCl2. […] After a 60-minute development reaction incubation at room temperature, the fluorescence was read on plate reader and the data analyzed.
For assay [4], the system named is murine splenocytes stimulated with α-CD3 antibody. The assay is described as follows: Cytokine secretion after α-CD3 stimulation. The note with it: Mus musculus, Splenocyte, 24 h. The assay is classed as cell-based, Balb/C mice. As for the experimental part:
The ability of test compounds to inhibit cytokine release by murine splenocytes after stimulation with α-CD3 antibody was also investigated.
2×10^6 splenocytes from Balb/C female mice, 8-10 weeks old in 220 μl of complete medium were stimulated with 0.1 μg of hamster anti mouse CD3ε antibody in presence of various concentrations of test compounds. After 24 h of incubation at 37° C., 5% CO2, supernatant were collected and cytokine titers were determined by flow cytometry according manufacturer protocols (MCB United States, Arlington, Mass., USA).
The results are shown in FIG. 1 compared to a DMSO negative control (▾). […].

Assay [5] has as its system collagen-induced arthritis. The experiment in a line: Collagen-induced arthritis model. In kind it is in vivo, DBA1 male mice. The note with it: 40 mg/kg/d oral gavage. As for the experimental part:
The activity of test compound in an in vivo model, the collagen-induced arthritis model, was investigated. […] DBA1 male mice, 8-10 weeks old, were distributed in 2 groups according to the treatment. Twelve animals received daily treatment with vehicle (1% methylcellulose), twelve others received compound (3) at 40 mg/kg/d in 1% methylcellulose. The treatment initiation started the day before the intradermal injection at the base of the tail of 100 μg of emulsified chicken collagen II in presence of complete Freund adjuvant and added heat-killed Mycobacterium butyricum. Daily inspection of the mice was performed to weight animals and quantify disease score according to the following scale (score 0: normal; score 1: redness and/or swelling in one joint; score 2: redness and/or swelling in more than one joint; score 3: redness and/or swelling in the entire paw; score 4: deformity and/or ankylosis). On the day of sacrifice (day 42) serum were collected and anti-collagen II antibody titers were determined by ELISA. Joints were harvested, fixed in 6% paraformaldehyde, decalcified in formic acid 6% for 48 h, sliced and stained by hematoxylin and eosin staining. Hyperplasia of the synovium, infiltration of mono and polymorphonuclear cells and pannus formation parameters were scored blindly.

The subject of assay [6] is cardiac allograft rejection. The experiment in a line: Cardiac allograft transplantation model, treatment day -1 to day 30 (Examples 7 and 8). Conditions: Example 8. The assay is classed as in vivo, mice (C57BL/6 donor, Balb/c recipient).
Experimental: Inbreed C57BL/6 H-2b and Balb/c H-2d female mice, 8-10 weeks old, 20-25 g, were used as donor and recipient, respectively. Heterotopic heart transplantation was performed by implanting the donor heart on the neck of recipients using conventional microsurgery techniques. Graft beating was checked daily by inspection and palpation. Cessation of beating indicated graft rejection, which was confirmed by histological examination. Housing and all experimental animal procedures were approved by the Institutional Animal Care and Research Advisory Committee of the KU Leuven.
In assay [7] the test system is cardiac allograft rejection. The experiment in a line: Cardiac allograft transplantation and tolerance model, treatment day 0 to day 30 (Example 9).
Text: The activity of test compound in a mouse model of cardiac allograft transplantation experiment was investigated. […] Animals with beating graft at day 60 were rechallenged with a second graft from the same strain donor or from a third party donor.
To evaluate the operational tolerance phenotype, animals with functional graft at day 60 were challenged with a second graft from the same donor strain or from a third party. No treatment was applied.
Inbreed C57BL/6 H-2^b and Balb/c H-2^d female mice, 8-10 weeks old, 20-25 g, were used as donor and recipient, respectively. Heterotopic heart transplantation was performed by implanting the donor heart on the neck of recipients using conventional microsurgery techniques. Graft beating was checked daily by inspection and palpation. Cessation of beating indicated graft rejection. The third party donor was C3H H-2^k female mice, 8-10 weeks old, 20-25 gr.
Treatment started the day of transplantation (day 0) until day 30 post transplantation.
Where [8] appears, read: RPMI-1788, 144 h, read-out: IC50 MLR, 6 days culture.
Setting [9] is: animals with functional graft at day 60, no treatment, n=2.

Sequence of PI4KIIIβ (PI4KB, PI4K beta) (Q9UBF8 whole entry): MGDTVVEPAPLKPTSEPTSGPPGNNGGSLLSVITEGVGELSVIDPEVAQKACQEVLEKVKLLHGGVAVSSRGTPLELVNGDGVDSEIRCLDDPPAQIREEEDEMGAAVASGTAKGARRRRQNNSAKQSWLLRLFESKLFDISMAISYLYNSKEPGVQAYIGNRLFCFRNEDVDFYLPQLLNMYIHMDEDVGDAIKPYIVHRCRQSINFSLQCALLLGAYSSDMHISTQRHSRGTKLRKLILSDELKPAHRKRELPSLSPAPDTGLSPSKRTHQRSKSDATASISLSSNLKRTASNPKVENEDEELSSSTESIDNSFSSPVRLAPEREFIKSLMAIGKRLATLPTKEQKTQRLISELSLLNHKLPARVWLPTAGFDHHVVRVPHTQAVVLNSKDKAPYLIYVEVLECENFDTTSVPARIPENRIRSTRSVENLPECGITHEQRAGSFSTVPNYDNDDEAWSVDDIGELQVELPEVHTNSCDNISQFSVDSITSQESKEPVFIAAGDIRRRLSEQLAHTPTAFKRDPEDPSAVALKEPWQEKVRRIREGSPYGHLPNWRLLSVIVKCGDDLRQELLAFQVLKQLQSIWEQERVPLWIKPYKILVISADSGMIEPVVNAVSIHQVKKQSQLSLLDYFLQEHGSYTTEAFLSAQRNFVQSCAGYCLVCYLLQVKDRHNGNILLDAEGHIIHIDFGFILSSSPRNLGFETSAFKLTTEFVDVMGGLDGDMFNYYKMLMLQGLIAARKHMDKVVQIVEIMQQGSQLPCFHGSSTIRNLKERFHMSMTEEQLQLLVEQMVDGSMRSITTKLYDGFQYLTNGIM
T2 sequence (O94804 whole entry): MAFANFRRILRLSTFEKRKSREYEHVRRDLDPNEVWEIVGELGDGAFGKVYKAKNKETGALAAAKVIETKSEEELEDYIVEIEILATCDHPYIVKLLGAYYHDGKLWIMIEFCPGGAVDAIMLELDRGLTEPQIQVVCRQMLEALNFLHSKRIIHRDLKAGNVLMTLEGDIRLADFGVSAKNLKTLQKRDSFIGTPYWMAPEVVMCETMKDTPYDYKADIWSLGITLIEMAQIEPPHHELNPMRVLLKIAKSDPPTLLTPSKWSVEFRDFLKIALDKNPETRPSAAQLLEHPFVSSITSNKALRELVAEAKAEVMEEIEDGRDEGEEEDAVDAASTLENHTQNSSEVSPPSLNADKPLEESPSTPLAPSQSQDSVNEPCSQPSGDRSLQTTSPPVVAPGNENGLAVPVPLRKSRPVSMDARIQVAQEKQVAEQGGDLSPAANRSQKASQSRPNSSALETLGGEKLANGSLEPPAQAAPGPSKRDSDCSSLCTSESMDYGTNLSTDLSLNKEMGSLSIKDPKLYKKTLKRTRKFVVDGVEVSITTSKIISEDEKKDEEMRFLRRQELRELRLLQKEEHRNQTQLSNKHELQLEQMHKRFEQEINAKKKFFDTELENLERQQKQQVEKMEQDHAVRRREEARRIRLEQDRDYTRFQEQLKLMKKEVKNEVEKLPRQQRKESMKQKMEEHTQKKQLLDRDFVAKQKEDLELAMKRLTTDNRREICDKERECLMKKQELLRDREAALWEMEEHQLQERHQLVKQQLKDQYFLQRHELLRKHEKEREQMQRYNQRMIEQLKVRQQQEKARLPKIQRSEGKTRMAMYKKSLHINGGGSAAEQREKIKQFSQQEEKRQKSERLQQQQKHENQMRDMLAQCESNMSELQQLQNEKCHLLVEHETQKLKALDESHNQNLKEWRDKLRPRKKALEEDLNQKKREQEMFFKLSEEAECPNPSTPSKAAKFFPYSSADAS
T5 sequence (P42356 whole entry): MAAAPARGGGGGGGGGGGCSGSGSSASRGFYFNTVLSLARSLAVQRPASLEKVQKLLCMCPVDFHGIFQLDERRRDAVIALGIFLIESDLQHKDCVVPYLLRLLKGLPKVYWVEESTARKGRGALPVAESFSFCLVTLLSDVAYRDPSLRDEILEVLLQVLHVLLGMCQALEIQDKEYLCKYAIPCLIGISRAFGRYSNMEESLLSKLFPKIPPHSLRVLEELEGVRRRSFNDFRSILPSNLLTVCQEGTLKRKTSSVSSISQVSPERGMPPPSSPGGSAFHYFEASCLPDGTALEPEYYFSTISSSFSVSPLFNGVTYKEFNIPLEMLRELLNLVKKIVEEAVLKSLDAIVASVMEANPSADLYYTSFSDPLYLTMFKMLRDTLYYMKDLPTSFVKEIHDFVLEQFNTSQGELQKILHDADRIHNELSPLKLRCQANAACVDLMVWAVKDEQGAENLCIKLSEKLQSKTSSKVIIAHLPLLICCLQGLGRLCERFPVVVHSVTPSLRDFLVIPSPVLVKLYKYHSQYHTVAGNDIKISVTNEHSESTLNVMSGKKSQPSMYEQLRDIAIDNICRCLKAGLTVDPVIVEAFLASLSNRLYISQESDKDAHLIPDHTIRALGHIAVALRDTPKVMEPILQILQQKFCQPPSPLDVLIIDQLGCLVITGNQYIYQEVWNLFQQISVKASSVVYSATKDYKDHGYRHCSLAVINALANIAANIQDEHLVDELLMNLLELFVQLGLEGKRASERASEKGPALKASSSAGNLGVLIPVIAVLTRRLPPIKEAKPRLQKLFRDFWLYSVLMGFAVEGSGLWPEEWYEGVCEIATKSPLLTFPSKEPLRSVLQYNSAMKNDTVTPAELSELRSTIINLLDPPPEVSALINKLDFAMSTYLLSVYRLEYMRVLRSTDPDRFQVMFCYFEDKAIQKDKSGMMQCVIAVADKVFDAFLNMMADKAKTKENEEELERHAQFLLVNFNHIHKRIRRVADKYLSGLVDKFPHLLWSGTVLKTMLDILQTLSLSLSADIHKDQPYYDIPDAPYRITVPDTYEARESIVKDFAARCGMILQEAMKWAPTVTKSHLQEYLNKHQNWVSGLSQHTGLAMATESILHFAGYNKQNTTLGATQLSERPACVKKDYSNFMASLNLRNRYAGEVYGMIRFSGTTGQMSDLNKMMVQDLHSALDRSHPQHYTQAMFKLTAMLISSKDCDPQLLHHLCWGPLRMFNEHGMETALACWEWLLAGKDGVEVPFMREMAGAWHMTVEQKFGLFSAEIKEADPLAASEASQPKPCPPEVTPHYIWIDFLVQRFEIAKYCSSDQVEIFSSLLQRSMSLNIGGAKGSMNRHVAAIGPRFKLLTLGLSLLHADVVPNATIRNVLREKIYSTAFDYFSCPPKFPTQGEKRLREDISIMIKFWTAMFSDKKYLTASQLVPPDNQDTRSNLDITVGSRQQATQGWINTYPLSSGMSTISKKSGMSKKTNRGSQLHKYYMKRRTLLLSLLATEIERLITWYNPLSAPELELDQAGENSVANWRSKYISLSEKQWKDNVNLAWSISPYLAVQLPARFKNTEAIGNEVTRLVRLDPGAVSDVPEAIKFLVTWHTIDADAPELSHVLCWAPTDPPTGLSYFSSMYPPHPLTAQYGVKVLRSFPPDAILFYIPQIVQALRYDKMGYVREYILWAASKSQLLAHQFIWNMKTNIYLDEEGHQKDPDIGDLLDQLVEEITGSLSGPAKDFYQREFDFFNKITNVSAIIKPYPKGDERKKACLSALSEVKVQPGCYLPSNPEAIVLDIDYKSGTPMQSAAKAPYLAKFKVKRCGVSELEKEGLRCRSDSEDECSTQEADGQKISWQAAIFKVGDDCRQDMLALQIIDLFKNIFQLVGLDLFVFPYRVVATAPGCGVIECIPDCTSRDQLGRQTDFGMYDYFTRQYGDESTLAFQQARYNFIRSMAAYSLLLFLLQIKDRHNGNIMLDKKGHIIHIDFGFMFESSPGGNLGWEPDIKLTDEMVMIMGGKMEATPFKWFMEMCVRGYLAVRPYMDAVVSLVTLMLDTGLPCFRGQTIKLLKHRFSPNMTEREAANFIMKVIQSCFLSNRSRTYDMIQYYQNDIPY
T4 sequence (Q13153 whole entry): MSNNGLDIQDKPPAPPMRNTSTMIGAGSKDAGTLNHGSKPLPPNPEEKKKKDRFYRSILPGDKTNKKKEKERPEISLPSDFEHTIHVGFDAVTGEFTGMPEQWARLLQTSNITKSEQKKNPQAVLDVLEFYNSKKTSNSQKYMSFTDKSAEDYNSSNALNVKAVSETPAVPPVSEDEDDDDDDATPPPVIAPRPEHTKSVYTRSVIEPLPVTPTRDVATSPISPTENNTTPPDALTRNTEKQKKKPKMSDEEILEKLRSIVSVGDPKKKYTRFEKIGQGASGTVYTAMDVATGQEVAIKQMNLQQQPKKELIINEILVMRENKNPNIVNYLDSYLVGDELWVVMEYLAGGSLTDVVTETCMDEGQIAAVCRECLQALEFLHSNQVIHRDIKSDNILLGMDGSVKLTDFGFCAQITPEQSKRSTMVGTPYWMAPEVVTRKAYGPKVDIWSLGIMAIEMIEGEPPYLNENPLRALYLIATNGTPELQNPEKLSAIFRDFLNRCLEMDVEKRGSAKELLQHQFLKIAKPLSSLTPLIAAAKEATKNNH

As to `CC(=O)Nc1nc(C)c(-c2ccc(Cl)c(S(=O)(=O)NCCO)c2)s1` [PIK93, reference compound], in [1] (setting [8]), the pIC50 was 6.40.

On to `COc1ccc(-c2c(C)nn3c(NCCN4CCOCC4)cc(C)nc23)cc1OC` [T-00127-HEV1, reference compound], for which the pIC50 in [1] (RPMI-1788, 144 h, read-out: IC50 MLR) was 6.07.

Take `Cc1cccc(NC(=O)N2CCN(c3nc(N)nc4sc(-c5cccnc5)nc34)CC2)c1` [formula (2), 4-[5-amino-2-(pyridin-3-yl)thiazolo[5,4-d]pyrimidin-7-yl]-N-m-tolylpiperazine-1-carboxamide]: the Kinase activity in assay [2] is reported as 82 percentage of control; at LOK (h), 98 percentage of control; on YSK4 (h), 79 percentage of control; at PAK1, 108 percentage of control; at PI4KA (PI4K alpha) it was 90 percentage of control. Further, the pIC50 in assay [3] is 7.84. The inhibition at 10 µM in [3] is 99.5%.

For `Cc1ccc(NC(=O)N2CCN(c3nc(N)nc4sc(-c5cccnc5)nc34)CC2)cc1` [formula (3)], the pIC50 in assay [4] (read-out: IC50 for inhibition of IFNγ release) is above 9.00. Moreover, the pIC50 in [4] (read-out: IC50 for inhibition of IL2 release) was above 9.00. Further, the “histological scores (hyperplasia, infiltration, pannus)” value in [5] (joints day 42) is “reduced”. In addition, in assay [5] (preventive, vs vehicle), the “onset of arthritic symptoms” value is “delay the onset of arthritic symptoms” and the symptom severity result was “decrease symptom severity”. For the same compound, the “anti-CII IgG titre” value in [5] (serum day 42) is “reduced”. The “Surviving days (cardiac graft)” value in [6] (20 mg/kg/d daily gavage, individual animals, 20 mg/kg/day) was “up to 13 days”. Besides, in [6] (40 mg/kg per day), the “grafts continuously functioning after stopping the treatment on day 30” value is on record as 3/4 and the “grafts with continuous survival while treatment continued” value is 4/6. For the same compound, the “grafts with prolonged survival at day 30” value in [7] (Example 9, each group (40, 50, 60 mg/kg/d)) is on record as 3 out of 6. In [7] (setting [9]), the “day of rejection of second graft from third party donor” value was determined as 8 days and the “time second graft from same donor strain was functional” value is listed as “more than 90 days”.

Regarding `Nc1nc(N2CCN(C(=O)COc3ccc(F)cc3)CC2)c2nc(-c3cccnc3)sc2n1` [formula (4)], the pIC50 was 7.66 in assay [3]; above 7.30 in assay [1] (setting [8]); 7.60 in [1] (read-out: IC50 MLR, 6 days culture). For the same compound, in assay [3], the inhibition at 10 µM came to 95%.

One may read the pIC50 as −log10 of the IC50, conventionally taken in molar units. By inhibition is commonly meant the relative decrease from the control value, in per cent.
